Results on one compound are retold here after patent US11059800B2, “Dehydroleucodine derivatives and uses thereof” (Bioventures, LLC, priority 2013, dated 2021).

Structures are written as SMILES.

Experiment [1] concerns Kasumi-1. Briefly: Cytotoxicity, annexin V/7-AAD viability by flow cytometry, Kasumi-1. It counts as cell-based, human. The following applies: Kasumi-1, 48 hours, drug range tested 1.25-160 μM. As to the method:
(§1) In order to assess the structure-activity relationship of DHL and its derivatives, DHL and its derivatives were evaluated against eight human leukemia cell lines. Cell lines were cultured in Iscove's Modified Dulbecco's Medium (IMDM) supplemented with 10%˜20% fetal bovine serum (FBS) according to culture conditions indicated by ATCC and 1% penicillin/streptomycin (Pen/Strep) at 37° C. and 5% CO2. The cells were seeded into 96-well plates and kept at a concentration of 0.5 million cells per mL. The samples were treated with DHL, Leucodine, DHL-Morpholine, DHL-Proline, DHL-Piperidine, and PTL at varying concentrations in triplicates. Cell viability was determined after incubating for 48 hours. The cells were stained with annexin V-fluorescein isothiocyanate or phycoeritrine (FITC/PE) and 7-aminoactinomycin (7-AAD) to detect phosphatidylserine exposition and cell permeability, respectively. At least 50,000 events were recorded per condition on either an LSR-II or LSR-Fortessa flow cytometer (BD Biosciences). Data analysis was conducted using FlowJo 9.6 software for Mac OS X (TreeStar). Cells that were negative for annexin V and 7-AAD were scored as viable.

Experiment [2] deals with HMOX1 (Heme oxygenase 1). Briefly: Quantitative PCR of HMOX1 in MOLM-13 or MV-411 cells. It counts as cell-based. The following applies: 20 μM, 6 hours, MOLM-13 and MV-411 cells. As to the method: (§2) (FIG. 8A) Graphical representation of the fold changes of HMOX-1 in MOLM-13 cells. Cells were seeded at 0.5 million cells per milliliter and subject to 20 μM of DHL, leucodine, DHL-proline, DHL-piperidine, DHL-morpholine, or parthenolide for 6 hours. RNA was then extracted and quantitative PCR was performed. Experiments were performed in triplicates. Lines represent mean for each specimen, with error bars representing the SD. Fold change was calculated by the delta-delta Ct method. […] (FIG. 8D) Immunoblot for MOLM-13 cells after 6 hours of treatment with either DHL or PTL with 10 or 20 μM. Blot was probed for phospho-p65 and p65 antibodies. Total p65 is shown as the loading control.
(FIG. 9A) Graphical representation of the fold changes of HMOX-1 in MV-411 cells. Cells were seeded at 0.5 million cells per milliliter and subject to 20 μM of DHL, leucodine, DHL-proline, DHL-piperidine, DHL-morpholine, or parthenolide for 6 hours. RNA was then extracted and quantitative PCR was performed. Experiments were performed in triplicates. Lines represent mean for each specimen, with error bars representing the SD. Fold change was calculated by the delta-delta Ct method. (FIG. 9B) Graphical representation of the fold changes of HSPA1A in MV-411 cells, with the same experimental setup and analysis as FIG. […].
(§3) To compare these intracellular effects of DHL and its derivatives, quantitative PCR was performed (FIG. 8 and FIG. 9). MOLM-13 or MV-411 cells were seeded at 0.5 million cells per milliliter. Cells were treated for 6 hours with 20 μM of DHL, Leucodine, DHL-Morpholine, DHL-Proline, DHL-Piperidine or PTL, and then collected. Total RNA was extracted using the Qiashredder and Qiagen Rneasy Mini kits. […] Quantitative PCR was performed using probes for HMOX-1 (Hs01110251_m1), HSPA1A (Hs00359163_s1), and NFKB1 (Hs00765730_m1). […] Single-plex real-time PCR was performed in triplicates in a StepOne plus RealTime PCR system and analyzed with the StepOne Software. Fold change was calculated using the 2-DDCT method described by Livak and Schmittgen.

The subject of experiment [3] is CCRF-CEM. Briefly: Single dose tumor cell growth inhibition, Leukemia CCRF-CEM. It counts as cell-based. The following applies: single dose 10 μM. An excerpt: (§4) DHL is cytotoxic to various leukemia, colon cancer, CNS cancer and prostate cancer cell lines.
In experiment [4] the test system is K-562. Put plainly: Single dose tumor cell growth inhibition, Leukemia K-562. It counts as cell-based. The settings on record: K-562, single dose 10 μM.
Text: as §4

Experiment [5] relates to MV4-11. Put plainly: Cytotoxicity, annexin V/7-AAD viability by flow cytometry, MV4-11. The following applies: MV4-11, 48 hours, drug range tested 1.25-160 μM. It counts as cell-based, human. As to the method:
as §1

In experiment [6] the test system is PC-3. Briefly: Single dose tumor cell growth inhibition, Prostate Cancer PC-3. It counts as cell-based, human. The settings on record: PC-3, single dose 10 μM.
Text: as §4

In experiment [7] the test system is MOLM-13. Put plainly: Cytotoxicity, annexin V/7-AAD viability by flow cytometry, MOLM-13. The following applies: MOLM-13, 48 hours, drug range tested 1.25-160 μM. It counts as cell-based, human. On the procedure:
as §1
(In general: In flow cytometry, cells or beads pass a laser one at a time.)

The test system of experiment [8] is DU-145. Briefly: Single dose tumor cell growth inhibition, Prostate Cancer DU-145. It counts as cell-based, human. The following applies: DU-145, single dose 10 μM.
Text: as §4

The subject of experiment [9] is HOP-62. Put plainly: Single dose tumor cell growth inhibition, Non-Small Cell Lung Cancer HOP-62. It counts as cell-based. The following applies: HOP-62, single dose 10 μM.
Text: as §4

In experiment [10] the test system is HL-60. Put plainly: Cytotoxicity, annexin V/7-AAD viability by flow cytometry, HL-60. It counts as cell-based, human. The settings on record: HL-60, 48 hours, drug range tested 1.25-160 μM. On the procedure:
as §1

Experiment [11] has as its system SNB-75. Put plainly: Single dose tumor cell growth inhibition, CNS Cancer SNB-75. It counts as cell-based, human. The following applies: SNB-75, single dose 10 μM.
Text: as §4

Experiment [12] has as its system normal bone marrow and peripheral blood mononuclear cells. The settings on record: 20 μM, 48 hours, AML n=8 vs normal n=4, Mann-Whitney p=0.004. On the procedure: as §1, with “The” for “In order to assess the structure-activity relationship of DHL and its derivatives, DHL and its derivatives were evaluated against eight human leukemia cell lines. Cell lines were cultured in Iscove's Modified Dulbecco's Medium (IMDM) supplemented with 10%˜20% fetal bovine serum (FBS) according to culture conditions indicated by ATCC and 1% penicillin/streptomycin (Pen/Strep) at 37° C. and 5% CO2. The”

The test system of experiment [13] is NF-κB. Briefly: Quantitative PCR of NF-κB transcript in MOLM-13 and MV-411 cells. The following applies: 20 μM, 6 hours. It counts as cell-based. On the procedure:
as §2
as §3, with “collected.” for “collected. Total RNA was extracted using the Qiashredder and Qiagen Rneasy Mini kits.”

Experiment [14] relates to U251. Put plainly: Single dose tumor cell growth inhibition, CNS Cancer U251. It counts as cell-based, human. The following applies: U251, single dose 10 μM.
Text: as §4

Experiment [15] deals with U-937. Briefly: Cytotoxicity, annexin V/7-AAD viability by flow cytometry, U-937. The settings on record: U-937, 48 hours, drug range tested 1.25-160 μM. It counts as cell-based, human. On the procedure:
as §1

Experiment [16] deals with NCI/ADR-RES. Briefly: Single dose tumor cell growth inhibition, Ovarian Cancer NCI/ADR-RES. It counts as cell-based. The settings on record: single dose 10 μM.
Text: as §4

As to `C=C1C(=O)O[C@@H]2[C@H]3C(C)=CC(=O)C3=C(C)CC[C@@H]12` [DHL, dehydroleucodine], the LD50 in experiment [1] came to 12.92 µM; in experiment [5] it was 5.02 µM; in [7], 12.59 µM; in experiment [10], 14.13 µM; in experiment [15], 18.95 µM. The “HMOX1 expression, fold change” value in experiment [2] is “upregulated”. In addition, the Percent inhibition in experiment [3] is recorded as 44.9%; in [4] it was 42.0%; in [6], 38.6%; in experiment [8], 44.0%; in experiment [9], 0.0%; in experiment [11], 35.5%. The Percent inhibition in [14] worked out at 30.0%; in [16] it was 0.0%. For the same compound, the “potency to AML cell lines versus normal mononuclear cells” value in [12] is on record as “significantly more potent to the AML cell lines”. Further, the “NF-κB transcript levels” value in [13] was “slightly downregulated”.
